By IC50 is commonly meant the concentration that inhibits the measured activity by half. As a reminder, the Ki is a dissociation constant, usually derived from enzyme kinetics or from competition with a known ligand.

Assay [1] has as its target Vascular endothelial growth factor receptor 1 (Homo sapiens, UniProt P17948). The class given is cell-based. The note with it: huvec. Further: in other assays of this panel Not Active means under 50% inhibition at 10 µM.
Assay [2] in a line: DRUGMATRIX: Leukotriene, BLT (LTB4) radioligand binding (ligand: [3H]LTB4). The assay is classed as cell membranes, Membrane. The note with it: u-937; Not Active = under 50% inhibition at 10 µM.
A short description of assay [3]: DRUGMATRIX: Phosphodiesterase PDE4 enzyme inhibition (substrate: [3H]cAMP + cAMP). The note with it: u-937, Not Active = under 50% inhibition at 10 µM.
Assay [4] can be described thus: DRUGMATRIX: Imidazoline I2, Central radioligand binding (ligand: [3H] Idazoxan). The class given is cell membranes, Rattus norvegicus, Wistar, Cerebral cortex, Membrane. The note with it: Not Active = under 50% inhibition at 10 µM.
Assay [5] concerns the target Nitric oxide synthase 1 (Rattus norvegicus, UniProt P29476). The assay is classed as tissue-based, Cerebellum. Further: in other assays of this panel Not Active means under 50% inhibition at 10 µM.
The target of assay [6] is Receptor tyrosine-protein kinase erbB-2 (Homo sapiens, UniProt P04626). Kind of assay: biochemical. The assay is classed as cell-based, Insect cells.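 Further: inhibition of HER2 kinase enzyme activity, measured with Poly(Glu:Tyr) as the phosphorylation substrate; in other assays of this panel Not Active means under 50% inhibition at 10 µM.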
Receptor tyrosine-protein kinase erbB-2, sequence (P04626 whole entry): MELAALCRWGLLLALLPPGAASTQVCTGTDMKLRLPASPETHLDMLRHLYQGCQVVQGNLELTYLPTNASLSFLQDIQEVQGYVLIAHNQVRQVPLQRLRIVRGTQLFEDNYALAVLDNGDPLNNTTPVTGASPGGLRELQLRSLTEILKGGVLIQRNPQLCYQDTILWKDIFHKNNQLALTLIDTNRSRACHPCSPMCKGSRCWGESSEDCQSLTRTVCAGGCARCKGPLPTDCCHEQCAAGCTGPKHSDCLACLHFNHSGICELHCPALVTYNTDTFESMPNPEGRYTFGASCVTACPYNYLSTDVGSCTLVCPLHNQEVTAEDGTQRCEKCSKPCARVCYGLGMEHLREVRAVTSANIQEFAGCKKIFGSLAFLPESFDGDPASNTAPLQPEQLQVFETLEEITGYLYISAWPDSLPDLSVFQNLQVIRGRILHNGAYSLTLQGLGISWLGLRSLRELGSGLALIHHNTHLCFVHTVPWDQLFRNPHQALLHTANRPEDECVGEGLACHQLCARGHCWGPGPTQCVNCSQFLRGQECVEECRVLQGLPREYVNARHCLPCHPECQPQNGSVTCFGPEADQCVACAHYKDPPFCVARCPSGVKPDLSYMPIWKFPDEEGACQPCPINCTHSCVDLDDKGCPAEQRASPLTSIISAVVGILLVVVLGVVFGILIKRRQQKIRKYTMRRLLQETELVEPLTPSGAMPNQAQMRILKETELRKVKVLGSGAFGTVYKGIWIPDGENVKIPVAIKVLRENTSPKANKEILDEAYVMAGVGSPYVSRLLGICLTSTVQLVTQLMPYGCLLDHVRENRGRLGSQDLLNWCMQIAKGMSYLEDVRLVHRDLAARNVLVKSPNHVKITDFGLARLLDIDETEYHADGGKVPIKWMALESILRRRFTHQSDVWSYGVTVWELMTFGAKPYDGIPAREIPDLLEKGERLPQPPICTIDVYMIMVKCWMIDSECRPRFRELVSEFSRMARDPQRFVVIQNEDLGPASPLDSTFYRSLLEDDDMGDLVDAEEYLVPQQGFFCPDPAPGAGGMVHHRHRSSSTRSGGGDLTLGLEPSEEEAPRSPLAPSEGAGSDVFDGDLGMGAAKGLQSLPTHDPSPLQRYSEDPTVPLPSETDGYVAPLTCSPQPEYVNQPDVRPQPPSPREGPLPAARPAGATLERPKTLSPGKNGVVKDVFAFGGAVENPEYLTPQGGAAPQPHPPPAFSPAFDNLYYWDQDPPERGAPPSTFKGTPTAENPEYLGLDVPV
The target of assay [7] is T1, Type-2 angiotensin II receptor (Homo sapiens, UniProt P50052). Further: in other assays of this panel Not Active means under 50% inhibition at 10 µM.
T1 sequence (P50052 whole entry): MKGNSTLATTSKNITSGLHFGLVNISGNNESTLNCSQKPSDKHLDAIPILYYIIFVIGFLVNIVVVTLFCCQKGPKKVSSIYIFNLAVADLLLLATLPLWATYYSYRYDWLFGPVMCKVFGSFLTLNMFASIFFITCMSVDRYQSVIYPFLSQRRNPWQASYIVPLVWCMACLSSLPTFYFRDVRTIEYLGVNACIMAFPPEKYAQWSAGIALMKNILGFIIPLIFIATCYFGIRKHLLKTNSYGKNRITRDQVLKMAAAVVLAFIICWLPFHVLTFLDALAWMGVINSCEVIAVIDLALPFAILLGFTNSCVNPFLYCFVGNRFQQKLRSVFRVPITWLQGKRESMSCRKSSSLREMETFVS
The assay is classed as cell-based. The note with it: cho-k1.

Vascular endothelial growth factor receptor 1, sequence (P17948 whole entry): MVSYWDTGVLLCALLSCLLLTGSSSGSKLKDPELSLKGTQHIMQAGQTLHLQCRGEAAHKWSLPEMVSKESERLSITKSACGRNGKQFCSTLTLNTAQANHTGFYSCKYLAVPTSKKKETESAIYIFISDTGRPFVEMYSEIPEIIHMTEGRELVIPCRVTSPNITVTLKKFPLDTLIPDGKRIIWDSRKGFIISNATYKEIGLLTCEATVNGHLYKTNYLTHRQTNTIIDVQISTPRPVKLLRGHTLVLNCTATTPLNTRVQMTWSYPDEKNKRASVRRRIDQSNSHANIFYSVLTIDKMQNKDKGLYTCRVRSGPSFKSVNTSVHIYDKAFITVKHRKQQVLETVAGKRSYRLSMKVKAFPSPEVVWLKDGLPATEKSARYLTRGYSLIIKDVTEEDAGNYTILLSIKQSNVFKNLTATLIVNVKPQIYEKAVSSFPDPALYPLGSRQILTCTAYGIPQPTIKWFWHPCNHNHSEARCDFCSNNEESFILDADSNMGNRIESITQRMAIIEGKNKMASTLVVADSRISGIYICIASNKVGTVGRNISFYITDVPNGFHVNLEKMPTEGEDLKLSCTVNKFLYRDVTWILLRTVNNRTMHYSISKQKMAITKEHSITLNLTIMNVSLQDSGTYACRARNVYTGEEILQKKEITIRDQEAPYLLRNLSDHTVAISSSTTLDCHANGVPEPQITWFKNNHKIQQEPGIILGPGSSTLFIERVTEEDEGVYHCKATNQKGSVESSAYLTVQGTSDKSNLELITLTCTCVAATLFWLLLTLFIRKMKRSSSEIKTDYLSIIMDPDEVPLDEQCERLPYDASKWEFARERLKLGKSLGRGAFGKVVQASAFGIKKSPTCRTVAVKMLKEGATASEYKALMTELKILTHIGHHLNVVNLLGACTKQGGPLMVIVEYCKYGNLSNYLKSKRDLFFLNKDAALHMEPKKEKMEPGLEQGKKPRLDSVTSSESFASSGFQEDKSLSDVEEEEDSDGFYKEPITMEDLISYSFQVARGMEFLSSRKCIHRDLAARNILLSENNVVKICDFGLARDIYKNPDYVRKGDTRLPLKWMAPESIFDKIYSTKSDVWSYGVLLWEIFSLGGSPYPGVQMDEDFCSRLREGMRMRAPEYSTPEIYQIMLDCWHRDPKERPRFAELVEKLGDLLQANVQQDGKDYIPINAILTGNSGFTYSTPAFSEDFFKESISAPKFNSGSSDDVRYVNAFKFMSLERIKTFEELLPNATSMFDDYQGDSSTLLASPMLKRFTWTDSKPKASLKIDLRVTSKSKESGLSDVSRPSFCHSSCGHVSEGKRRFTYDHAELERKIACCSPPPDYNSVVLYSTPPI
Nitric oxide synthase 1, sequence (P29476 whole entry): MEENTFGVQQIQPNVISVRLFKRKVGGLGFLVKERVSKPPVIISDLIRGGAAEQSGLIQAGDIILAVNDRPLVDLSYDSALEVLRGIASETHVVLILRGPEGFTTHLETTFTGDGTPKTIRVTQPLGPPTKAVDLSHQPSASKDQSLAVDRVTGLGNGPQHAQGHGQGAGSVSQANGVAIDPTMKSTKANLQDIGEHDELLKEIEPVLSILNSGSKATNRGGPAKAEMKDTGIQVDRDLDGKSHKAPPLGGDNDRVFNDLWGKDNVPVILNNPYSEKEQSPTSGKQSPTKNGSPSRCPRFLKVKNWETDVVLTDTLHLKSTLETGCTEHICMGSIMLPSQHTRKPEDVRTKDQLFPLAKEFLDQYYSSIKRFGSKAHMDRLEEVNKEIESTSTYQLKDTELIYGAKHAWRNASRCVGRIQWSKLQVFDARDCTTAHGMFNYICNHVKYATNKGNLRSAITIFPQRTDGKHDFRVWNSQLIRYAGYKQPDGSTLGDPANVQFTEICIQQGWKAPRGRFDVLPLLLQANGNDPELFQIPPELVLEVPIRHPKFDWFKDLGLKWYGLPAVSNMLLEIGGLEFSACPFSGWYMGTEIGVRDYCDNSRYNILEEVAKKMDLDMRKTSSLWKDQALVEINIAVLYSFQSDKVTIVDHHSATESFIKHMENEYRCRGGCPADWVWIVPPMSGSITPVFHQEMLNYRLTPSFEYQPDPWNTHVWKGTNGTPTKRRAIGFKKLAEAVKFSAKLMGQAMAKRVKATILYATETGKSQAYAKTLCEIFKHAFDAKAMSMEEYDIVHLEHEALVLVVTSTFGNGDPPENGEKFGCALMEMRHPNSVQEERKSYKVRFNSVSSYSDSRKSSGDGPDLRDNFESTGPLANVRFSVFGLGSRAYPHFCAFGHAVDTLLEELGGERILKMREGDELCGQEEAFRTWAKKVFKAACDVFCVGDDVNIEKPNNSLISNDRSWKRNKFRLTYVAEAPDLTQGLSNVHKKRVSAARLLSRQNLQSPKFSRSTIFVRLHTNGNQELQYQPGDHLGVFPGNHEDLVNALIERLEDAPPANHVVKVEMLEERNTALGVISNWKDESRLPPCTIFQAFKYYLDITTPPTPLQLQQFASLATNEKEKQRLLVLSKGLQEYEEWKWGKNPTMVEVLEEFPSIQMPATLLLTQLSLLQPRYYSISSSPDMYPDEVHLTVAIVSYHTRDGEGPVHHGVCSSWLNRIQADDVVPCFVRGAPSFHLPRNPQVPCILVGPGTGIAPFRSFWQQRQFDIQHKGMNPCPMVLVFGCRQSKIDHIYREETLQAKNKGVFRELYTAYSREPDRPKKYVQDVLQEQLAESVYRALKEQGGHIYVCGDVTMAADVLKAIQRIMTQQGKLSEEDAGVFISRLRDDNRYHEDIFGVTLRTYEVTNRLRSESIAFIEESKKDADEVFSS

With `CC(C)(C)NC(=O)[C@@H]1C[C@@H]2CCCC[C@@H]2CN1C[C@@H](O)[C@H](Cc1ccccc1)NC(=O)[C@H](CC(N)=O)NC(=O)c1ccc2ccccc2n1`, the concentration for half-maximal inhibition (IC50) entry in assay [1], in assay [2], in assay [3], in assay [4], in assay [5] and in assay [6] (insect cells) was “Not Active” in each case. Also, in assay [7], the IC50 entry is “Not Active”. Moreover, the inhibition constant Ki result in assay [2], in assay [3] and in assay [4] was “Not Active” in each case.
`CC1(C)O[C@@H]2C[C@H]3[C@@H]4CCC5=CC(=O)C=C[C@]5(C)[C@@]4(F)[C@@H](O)C[C@]3(C)[C@]2(C(=O)CO)O1` [TRIAMCINOLONE ACETONIDE]: the concentration for half-maximal inhibition (IC50) entry in assay [1], in assay [2], in assay [3], in assay [4], in assay [5] and in assay [6] (insect cells) was “Not Active” each time. The IC50 entry in assay [7] was “Not Active”. For the same molecule, the Ki entry in assay [2], in assay [3] and in assay [4] was “Not Active” in each case.
On to `Cc1cccc(N(C)C(=S)Oc2ccc3ccccc3c2)c1` [TOLNAFTATE], for which the IC50 entry in assay [1], in assay [2], in assay [3], in assay [4], in assay [5] and in assay [6] (insect cells) was “Not Active” throughout. Further, the half-maximal inhibitory concentration (IC50) entry in assay [7] is reported as “Not Active”. Further, the inhibition constant Ki result in assay [2], in assay [3] and in assay [4] was “Not Active” each time.
Regarding `C[C@@H]1CN(c2c(F)c(N)c3c(=O)c(C(=O)O)cn(C4CC4)c3c2F)C[C@H](C)N1` [SPARFLOXACIN], the IC50 entry in assay [1], in assay [2], in assay [3], in assay [4], in assay [5] and in assay [6] (insect cells) was “Not Active” in each case. Also, the concentration for half-maximal inhibition (IC50) entry in assay [7] was “Not Active”. Moreover, the inhibition constant Ki result in assay [2], in assay [3] and in assay [4] was “Not Active” throughout.
Consider `Cn1ccnc1S` [METHIMAZOLE], for which the IC50 entry in assay [1], in assay [2], in assay [3], in assay [4], in assay [5] and in assay [6] (insect cells) was “Not Active” each time. Besides, in assay [7], the IC50 entry is “Not Active”. In addition, the inhibition constant Ki result in assay [2], in assay [3] and in assay [4] was “Not Active” in each case.
As for `CN1CCN(CCCN2c3ccccc3Sc3ccc(Cl)cc32)CC1` [PROCHLORPERAZINE], the IC50 entry in assay [1], in assay [5], in assay [6] (insect cells) and in assay [7] was “Not Active” each time.
Consider `C=CCC1(C(C)CCC)C(=O)NC(=O)NC1=O` (centres undefined) [SECOBARBITAL], for which the IC50 entry in assay [1], in assay [2], in assay [3], in assay [4], in assay [5] and in assay [6] (insect cells) was “Not Active” in each case. The concentration for half-maximal inhibition (IC50) entry in assay [7] is listed as “Not Active”. Further, the inhibition constant (Ki) result in assay [2], in assay [3] and in assay [4] was “Not Active” in each case.
On to `N[C@@H](Cc1ccc(N(CCCl)CCCl)cc1)C(=O)O`, for which the IC50 entry in assay [1], in assay [2], in assay [3], in assay [4], in assay [5] and in assay [6] (insect cells) was “Not Active” each time. In addition, the half-maximal inhibitory concentration (IC50) result in assay [7] is recorded as “Not Active”. Further, the inhibition constant (Ki) entry in assay [2], in assay [3] and in assay [4] was “Not Active” throughout.
Take `Nc1nc2ccc(OC(F)(F)F)cc2s1` [RILUZOLE]: the IC50 entry in assay [1], in assay [2], in assay [3], in assay [4], in assay [5] and in assay [6] (insect cells) was “Not Active” each time. The half-maximal inhibitory concentration (IC50) entry in assay [7] was “Not Active”. In addition, the Ki entry in assay [2], in assay [3] and in assay [4] was “Not Active” throughout.
Consider `N[C@@H]1[C@H]2CN(c3nc4c(cc3F)c(=O)c(C(=O)O)cn4-c3ccc(F)cc3F)C[C@@H]12` [TROVAFLOXACIN], for which the IC50 result in assay [1], in assay [2], in assay [3], in assay [4], in assay [5] and in assay [6] (insect cells) was “Not Active” each time. The half-maximal inhibitory concentration (IC50) result in assay [7] is “Not Active”. In addition, the Ki entry in assay [2], in assay [3] and in assay [4] was “Not Active” in each case.
As for `COc1c(C)c2c(c(O)c1C/C=C(\C)CCC(=O)O)C(=O)OC2` [MYCOPHENOLIC ACID], the IC50 result in assay [1], in assay [2], in assay [3], in assay [4], in assay [5] and in assay [6] (insect cells) was “Not Active” in each case. The half-inhibitory concentration (IC50) result in assay [7] is reported as “Not Active”. Also, the Ki result in assay [2], in assay [3] and in assay [4] was “Not Active” each time.
Regarding `CCCOc1ccccc1-c1nc2nn[nH]c2c(=O)[nH]1` [ZAPRINAST], the IC50 result in assay [1], in assay [2], in assay [3], in assay [4], in assay [5] and in assay [6] (insect cells) was “Not Active” in each case. Also, the IC50 entry in assay [7] was “Not Active”. Moreover, the inhibition constant (Ki) entry in assay [2], in assay [3] and in assay [4] was “Not Active” each time.
Take `Nc1nc2nc[nH]c2c(=S)[nH]1` [THIOGUANINE]: the IC50 result in assay [1], in assay [2], in assay [3], in assay [4], in assay [5] and in assay [6] (insect cells) was “Not Active” in each case. In addition, the concentration for half-maximal inhibition (IC50) entry in assay [7] is given as “Not Active”. Moreover, the Ki entry in assay [2], in assay [3] and in assay [4] was “Not Active” in each case.
`Cc1c(C)c2c(c(C)c1O)CCC(C)(COc1ccc(CC3SC(=O)NC3=O)cc1)O2` (centres undefined) [TROGLITAZONE]: the 50% inhibitory concentration (IC50) result in assay [1], in assay [2], in assay [3], in assay [4], in assay [5] and in assay [6] (insect cells) was “Not Active” throughout. For the same molecule, the IC50 result in assay [7] is listed as “Not Active”. Moreover, the Ki result in assay [2], in assay [3] and in assay [4] was “Not Active” each time.
For `Cc1nc2n(c(=O)c1CCN1CCC(c3noc4cc(F)ccc34)CC1)CCCC2` [RISPERIDONE], the IC50 result in assay [1], in assay [5], in assay [6] (insect cells) and in assay [7] was “Not Active” in each case.
`COc1nc(C)nc(Cl)c1NC1=NCCN1` [MOXONIDINE]: the IC50 result in assay [1] was “Not Active”; in assay [2] it was “Not Active”; in assay [3], “Not Active”; in assay [4] (read-out: IC50), 1.48 µM; in assay [5], “Not Active”; in assay [6] (insect cells), “Not Active”. In addition, in assay [7], the half-inhibitory concentration (IC50) result is reported as “Not Active”. Moreover, the Ki result is “Not Active” in assay [2], “Not Active” in assay [3] and 0.984 µM in assay [4] (read-out: Ki).
Consider `N[C@@H](Cc1cc(I)c(Oc2ccc(O)c(I)c2)c(I)c1)C(=O)O` [LIOTHYRONINE], for which the concentration for half-maximal inhibition (IC50) result in assay [1], in assay [5], in assay [6] (insect cells) and in assay [7] was “Not Active” throughout.
Consider `OCCN(CCO)c1nc(N2CCCCC2)c2nc(N(CCO)CCO)nc(N3CCCCC3)c2n1` [DIPYRIDAMOLE], for which the concentration for half-maximal inhibition (IC50) result in assay [1] is “Not Active”; in assay [2], “Not Active”; in assay [3] (read-out: IC50), 1.58 µM; in assay [4], “Not Active”; in assay [5], “Not Active”; in assay [6] (insect cells), “Not Active”. Further, the IC50 result in assay [7] was “Not Active”. Further, the Ki entry in assay [2] and in assay [4] was “Not Active” throughout.
On to `O=NN(CCCl)C(=O)NC1CCCCC1` [LOMUSTINE], for which the half-maximal inhibitory concentration (IC50) result in assay [1], in assay [2], in assay [3], in assay [4], in assay [5] and in assay [6] (insect cells) was “Not Active” throughout. In addition, in assay [7], the IC50 entry is listed as “Not Active”. The inhibitory constant (Ki) entry in assay [2], in assay [3] and in assay [4] was “Not Active” each time.
Regarding `CCCCc1oc2ccccc2c1C(=O)c1cc(I)c(OCCN(CC)CC)c(I)c1` [AMIODARONE], the half-inhibitory concentration (IC50) result in assay [1] is “Not Active”; in assay [5], “Not Active”; in assay [6] (read-out: IC50), 9.15 µM; in assay [7], “Not Active”.
For `CC/C(=C(\c1ccccc1)c1ccc(OCCN(C)C)cc1)c1ccccc1` [TAMOXIFEN], the IC50 entry in assay [1] is “Not Active”; in assay [5], “Not Active”; in assay [6] (read-out: IC50), 2.95 µM; in assay [7], “Not Active”.

Values taken from ChEMBL document CHEMBL1909046, “DrugMatrix in vitro pharmacology data”.
